The values that follow come from ChEMBL document CHEMBL4038270, “Synthesis of heterocyclic ring-fused tricyclic diterpene analogs as novel inhibitors of RANKL-induced osteoclastogenesis and bone resorption” (Eur J Med Chem, 2017).

The term inhibition denotes how much of the control response was suppressed. By pIC50 is commonly meant the negative decadic logarithm of the IC50, by convention in mol/L.

Assay [1] in a line: Inhibition of RANKL-induced C57BL/6 mouse bone marrow monocytes differentiation into osteoclasts at 0.1 uM after 6 days in presence of M-CSF by tartrate-resistant acid phosphatase staining based assay relative to control. Format: functional. To be noted: C57BL/6, Bone marrow monocyte, 144 h.
Assay [2] can be described thus: Inhibition of RANKL-induced C57BL/6 mouse bone marrow monocytes differentiation into osteoclasts at 2 uM after 6 days in presence of M-CSF by tartrate-resistant acid phosphatase staining based assay relative to control. In kind it is functional. To be noted: C57BL/6, Bone marrow monocyte, 144 h.
Assay [3] in a line: Inhibition of RANKL-induced C57BL/6 mouse bone marrow monocytes differentiation into osteoclasts at 0.5 uM after 6 days in presence of M-CSF by tartrate-resistant acid phosphatase staining based assay relative to control. Format: functional. The settings on record: C57BL/6, Bone marrow monocyte, 144 h.
Assay [4] is described as follows: Inhibition of RANKL-induced C57BL/6 mouse bone marrow monocytes differentiation into osteoclasts at 10 uM after 6 days in presence of M-CSF by tartrate-resistant acid phosphatase staining based assay relative to control. Format: functional. The settings on record: C57BL/6, Bone marrow monocyte, 144 h.
Assay [5] can be described thus: Inhibition of RANKL-induced C57BL/6 mouse bone marrow monocytes differentiation into osteoclasts after 6 days in presence of M-CSF by tartrate-resistant acid phosphatase staining based assay. In kind it is functional, cell-based. To be noted: C57BL/6, Bone marrow monocyte, 144 h.
The nature of assay [6]: Inhibition of RANKL-induced C57BL/6 mouse bone marrow macrophage differentiation into osteoclasts in presence of M-CSF by tartrate-resistant acid phosphatase staining based assay. Format: functional, cell-based. To be noted: C57BL/6, BMDM.

pIC50: −log10 of the molar value.

Turning to `COc1cc2c(cc1C(C)=O)CC[C@H]1C(C)(C)c3oc(C)nc3C[C@]21C`, the inhibition at 0.1 µM in assay [1] turned out to be 30.6%. For the same molecule, the inhibition at 2 µM in assay [2] amounted to 100%. The inhibition at 0.5 µM in assay [3] was 64.5%.
For `COc1ccc2c(c1)[C@@]1(C)Cc3cnc(N)nc3C(C)(C)[C@@H]1CC2`, the inhibition at 2 µM in assay [2] was found to be 64.6%. The inhibition at 10 µM in assay [4] is 96.2%. In assay [3], the inhibition at 0.5 µM was determined as 38.6%.
In the case of `COc1ccc2c(c1)[C@@]1(C)Cc3c([nH]c4ccccc34)C(C)(C)[C@@H]1CC2`, the inhibition at 2 µM in assay [2] stood at 74.3%. Besides, the inhibition at 10 µM in assay [4] is 88.9%. The inhibition at 0.5 µM in assay [3] turned out to be 57.6%.
The like results for `COc1ccc2c(c1)[C@@]1(C)Cc3snnc3C(C)(C)[C@@H]1CC2` were, in that order, 76.8%, 97.2% and 66.7%.
The like results for `COc1ccc2c(c1)[C@@]1(C)Cc3c[nH]nc3C(C)(C)[C@@H]1CC2` were, in that order, 8.1%, 10.1% and 4.3%.
The matching figures for `COc1ccc2c(c1)[C@@]1(C)Cc3nccnc3C(C)(C)[C@@H]1CC2`: 66.9%, 98.2% and 34.3%.
`CCCNC(=O)c1cc2c(cc1OC)[C@@]1(C)Cc3nc(C)oc3C(C)(C)[C@@H]1CC2`: the inhibition at 0.1 µM in assay [1] came to 38.1%. Moreover, the inhibition at 2 µM in assay [2] turned out to be 100%. Also, the inhibition at 0.5 µM in assay [3] is 62.8%.
As for `COc1cc2c(cc1N)CC[C@H]1C(C)(C)c3oc(C)nc3C[C@]21C`, in assay [1], the inhibition at 0.1 µM is 27.1%. The inhibition at 2 µM in assay [2] stood at 77.7%. Besides, the inhibition at 0.5 µM in assay [3] is 54.8%.
The like results for `CCCC(=O)c1cc2c(cc1OC)[C@@]1(C)Cc3nc(C)oc3C(C)(C)[C@@H]1CC2` were, in that order, 30%, 83.6% and 55.6%.
On to `COc1ccc2c(c1)[C@@]1(C)Cc3c(n[nH]c3C(=O)O)C(C)(C)[C@@H]1CC2`, for which the inhibition at 2 µM in assay [2] was determined as 57.2%. In addition, the inhibition at 10 µM in assay [4] came out at 56.1%. Moreover, in assay [3], the inhibition at 0.5 µM turned out to be 43.9%.
As to `CCCCNC(=O)c1cc2c(cc1OC)[C@@]1(C)Cc3nc(C)oc3C(C)(C)[C@@H]1CC2`, in assay [1], the inhibition at 0.1 µM was determined as 34.5%. Further, the inhibition at 2 µM in assay [2] was 88.6%. The inhibition at 0.5 µM in assay [3] came to 37.8%.
As to `CCNC(=O)c1noc2c1C[C@]1(C)c3cc(OC)ccc3CC[C@H]1C2(C)C`, the inhibition at 2 µM in assay [2] stood at 42.4%. Further, the inhibition at 10 µM in assay [4] stood at 84.3%. For the same molecule, the inhibition at 0.5 µM in assay [3] stood at 33.6%.
The matching figures for `CNC(=O)c1noc2c1C[C@]1(C)c3cc(OC)ccc3CC[C@H]1C2(C)C`: 52.8%, 100% and 28.6%.
In the case of `COc1cc2c(cc1NC(C)=O)CC[C@H]1C(C)(C)c3oc(C)nc3C[C@]21C`, the inhibition at 0.1 µM in assay [1] is 26.9%. Further, the inhibition at 2 µM in assay [2] is 66.1%. Besides, in assay [3], the inhibition at 0.5 µM is 44.1%.
The like results for `CNC(=O)c1cc2c(cc1O)[C@@]1(C)Cc3nc(C)oc3C(C)(C)[C@@H]1CC2` were, in that order, 64.1%, 96.6% and 87.6%.
The matching figures for `CCC(=O)c1cc2c(cc1OC)[C@@]1(C)Cc3nc(C)oc3C(C)(C)[C@@H]1CC2`: 32.5%, 91.3% and 64.1%.
With `COc1ccc2c(c1)[C@@]1(C)Cc3c(CO)noc3C(C)(C)[C@@H]1CC2`, the inhibition at 2 µM in assay [2] was found to be 51.7%. Further, the inhibition at 10 µM in assay [4] was determined as 91.4%. Moreover, in assay [3], the inhibition at 0.5 µM is 43.4%.
For the molecule `COc1ccc2c(c1)[C@@]1(C)Cc3cnoc3C(C)(C)[C@@H]1CC2`, in assay [5], the negative logarithm of the IC50 (pIC50) is 5.12. For the same molecule, the inhibition at 2 µM in assay [2] was determined as 15.9%. For the same molecule, in assay [4], the inhibition at 10 µM was 59.1%. The inhibition at 0.5 µM in assay [3] came to 1.5%.
On to `CCCOC(=O)c1noc2c1C[C@]1(C)c3cc(OC)ccc3CC[C@H]1C2(C)C`, for which the inhibition at 2 µM in assay [2] amounted to 41.4%. Moreover, in assay [4], the inhibition at 10 µM amounted to 100%. Besides, the inhibition at 0.5 µM in assay [3] was determined as 34.8%.
The like results for `CCOC(=O)c1[nH]nc2c1C[C@]1(C)c3cc(OC)ccc3CC[C@H]1C2(C)C` were, in that order, 71.7%, 93.7% and 61.6%.
As to `COc1cc2c(cc1C(N)=O)CC[C@H]1C(C)(C)c3oc(C)nc3C[C@]21C`, the inhibition at 0.1 µM in assay [1] is 10.2%. Moreover, in assay [2], the inhibition at 2 µM stood at 57%. Besides, in assay [3], the inhibition at 0.5 µM is 30.9%.
As for `CC1(C)[C@H](O)CC[C@]2(C)[C@@H]1CC[C@]13CC4C[C@](O)(C1)[C@@H]4C[C@H]32`, the negative logarithm of the IC50 (pIC50) in assay [6] was 4.70.
For the molecule `CC1(C)CC[C@]2(C(=O)O)CC[C@]3(C)C(=CC[C@@H]4[C@@]5(C)C[C@@H](O)[C@H](O)C(C)(C)[C@@H]5CC[C@]43C)[C@@H]2C1` [MASLINIC ACID], the pIC50 in assay [5] was 6.20. For the same molecule, the inhibition at 2 µM in assay [2] is 59.7%. Further, the inhibition at 10 µM in assay [4] was 76.3%. The inhibition at 0.5 µM in assay [3] turned out to be 48.6%.
Take `COc1ccc2c(c1)[C@@]1(C)Cc3c(C(=O)O)noc3C(C)(C)[C@@H]1CC2`: the inhibition at 2 µM in assay [2] is 66.8%. Besides, in assay [4], the inhibition at 10 µM is 77.9%. Besides, in assay [3], the inhibition at 0.5 µM came to 55.1%.
With `COc1cc2c(cc1C(=O)O)CC[C@H]1C(C)(C)c3oc(C)nc3C[C@]21C`, the inhibition at 0.1 µM in assay [1] is 22.6%. Further, the inhibition at 2 µM in assay [2] is 67.8%. Besides, the inhibition at 0.5 µM in assay [3] was 45.2%.
Consider `COc1ccc2c(c1)[C@@]1(C)Cc3cnc(C)nc3C(C)(C)[C@@H]1CC2`, for which, in assay [2], the inhibition at 2 µM was found to be 76%. For the same molecule, in assay [4], the inhibition at 10 µM came out at 98.5%. For the same molecule, the inhibition at 0.5 µM in assay [3] turned out to be 45.2%.
The like results for `CCOC(=O)c1noc2c1C[C@]1(C)c3cc(OC)ccc3CC[C@H]1C2(C)C` were, in that order, 88.6%, 100% and 49.5%.
Consider `CCNC(=O)c1cc2c(cc1OC)[C@@]1(C)Cc3nc(C)oc3C(C)(C)[C@@H]1CC2`, for which the inhibition at 0.1 µM in assay [1] was 56.1%. In addition, the inhibition at 2 µM in assay [2] was determined as 98.2%. For the same molecule, the inhibition at 0.5 µM in assay [3] came to 70%.
For the molecule `COc1ccc2c(c1)[C@@]1(C)Cc3cncnc3C(C)(C)[C@@H]1CC2`, in assay [2], the inhibition at 2 µM turned out to be 83%. Further, in assay [4], the inhibition at 10 µM is 99.5%. In addition, the inhibition at 0.5 µM in assay [3] turned out to be 51.1%.
Regarding `COc1cc2c(cc1/C(C)=N/O)CC[C@H]1C(C)(C)c3oc(C)nc3C[C@]21C`, the inhibition at 0.1 µM in assay [1] amounted to 26.9%. Moreover, the inhibition at 2 µM in assay [2] is 70%. The inhibition at 0.5 µM in assay [3] was found to be 42.7%.
The like results for `COc1cc2c(cc1C(=O)N(C)C)CC[C@H]1C(C)(C)c3oc(C)nc3C[C@]21C` were, in that order, 53.1%, 89.2% and 70.1%.
As to `COC(=O)c1noc2c1C[C@]1(C)c3cc(OC)ccc3CC[C@H]1C2(C)C`, the inhibition at 2 µM in assay [2] came out at 43.7%. Further, the inhibition at 10 µM in assay [4] is 100%. For the same molecule, the inhibition at 0.5 µM in assay [3] is 34.8%.
The like results for `COc1ccc2c(c1)[C@@]1(C)Cc3nc(N)sc3C(C)(C)[C@@H]1CC2` were, in that order, 35.8%, 98.2% and 29.8%.
